Patent US6956040B2, “Oxazolidinone piperazinyl derivatives as potential antimicrobials” (Ranbaxy Laboratories Limited, priority 2001, dated 2005)
In brackets after ≈: the same amount, converted by molar mass. Like-named read-outs stand apart in the source and are kept apart here. Each block holds one compound with its values, some of them ahead of it.

Legend:
S. pyogenes 19615 = experiment: MIC, agar incorporation method; assay type: cell-based, Streptococcus pyogenes; conditions: S. pyogenes 19615, agar incorporation
Text: (§1) The compounds of the invention display antibacterial activity when tested by the agar incorporation method. The following minimum inhibitory concentrations (μg/ml) were obtained for representative compounds of the invention which are given below in the following tables.
(§2) • 1) S.aureus ATCC 25923—Staphylococus aureus ATCC 25923 • 2) MRSA 15187—Methicillin Resistant Staphylococcus aureus • 3) Ent. faecalis ATCC 29212—Enterococcus faecalis ATCC 29212 • 4) Ent. faecium 6A—Enterococcus faecium 6A Van®, Cipro® • 5) Strep. pne. ATCC 6303—Streptococcus pneumoniae ATCC 6303 • 6) Strep. pyog. ATCC 19615—Streptococcus pyogenes • 7) S. epidermidis—Staphylococcus epidermidis ATCC 12228
(§3) Briefly, the compounds were dissolved in DMSO and doubling dilution of the compounds were incorporated into Meuller Hilton agar before solidification. Inoculum was prepared by suspending 4 to 5 colonies into 5 ml of normal saline solution and adjusting the turbidity to 0.5 Macfarland turbidity standard tables (1.5×10^8 CFU/ml), after appropriate dilutions, 10^4 CFU/spot was transfered into the surface of dried plate and incubated for 18 hours (24 hours for MRSN studies). The concentration showing no growth of the inoculated culture was recorded as the MIC. Appropriate ATCC standard strains were simultaneously tested and result recorded only when the MIC's against standard antibiotics were within the acceptable range.

[1] = Changes in MIC under different conditions: Agar MIC; assay type: cell-based; conditions: strain not given
Procedure: as §1, §3

[2] = Changes in MIC under different conditions: Broth MIC; assay type: cell-based; conditions: strain not given
S. pneum 6303 = experiment: MIC, agar incorporation method; assay type: cell-based, Streptococcus pneumoniae; conditions: S. pneum 6303, agar incorporation
Text: as §1, §2, §3

MRSA 15187 = experiment: MIC, agar incorporation method; assay type: cell-based, Staphylococcus aureus; conditions: MRSA 15187, agar incorporation
Text: as §1, §2, §3

S. aureus 25923 = experiment: MIC, agar incorporation method; assay type: cell-based, Staphylococcus aureus; conditions: S. aureus 25923, agar incorporation
Text: as §1, §2, §3

VRE 6A = experiment: MIC, agar incorporation method; assay type: cell-based, Enterococcus faecium; conditions: VRE 6A, agar incorporation
Text: as §1, §2, §3

MRSA 33 = experiment: MIC, agar incorporation method; assay type: cell-based, Staphylococcus aureus; conditions: MRSA 33, agar incorporation
Procedure: as §1, §3

MRSA 562 [3] = experiment: MIC, agar incorporation method; assay type: cell-based, Staphylococcus aureus; conditions: MRSA 562
Procedure: as §1, §3

MRSA 562 [4] = experiment: In vivo activity against MRSA 562 (ED50); set-up: species or system Staphylococcus aureus
E. faecalis 29212 = experiment: MIC, agar incorporation method; assay type: cell-based, Enterococcus faecalis; conditions: E. faecalis 29212, agar incorporation
Text: as §1, §2, §3

S. pneum AB 34 = experiment: MIC, agar incorporation method; assay type: cell-based, Streptococcus pneumoniae; conditions: S. pneum AB 34, agar incorporation
Procedure: as §1, §3

E. faecalis = experiment: Summary of in vitro activity (MIC) against E. faecalis; assay type: cell-based, Enterococcus faecalis; conditions: E. faecalis; for MIC50 / MIC90: Number 7
Procedure: as §1, §3

G+ve = experiment: Summary of in vitro activity (MIC) against G+ve bacteria; assay type: cell-based; conditions: for MIC50 / MIC90: G+ve, Number 49
Procedure: as §1, §3

S. pneumoniae = experiment: Summary of in vitro activity (MIC) against S. pneumoniae; assay type: cell-based, Streptococcus pneumoniae; conditions: S. pneumoniae; for MIC50 / MIC90: Number 19
Procedure: as §1, §3

S. aureus = experiment: Summary of in vitro activity (MIC) against S. aureus; assay type: cell-based, Staphylococcus aureus; conditions: S. aureus; for MIC50 / MIC90: Number 8
Procedure: as §1, §3

[5] = Staphylococcus aureus, read-out: MIC

SMILES: CC(=O)NC[C@H]1CN(c2ccc(N3CCN(C(=O)c4ccoc4)CC3)c(F)c2)C(=O)O1 [Compound No. 08, (S)-N[[3-[3-Fluoro-4-[N-1[4-(3-furoyl)]piperazinyl]phenyl]2-oxo-5-oxazolidinyl]methyl]cetamide]
MIC (S. pyogenes 19615): 1 µg/mL (≈ 2.32 µM)
Agar MIC [1]: 1 µg/mL
Broth MIC +50% Sheep serum [2]: 4 µg/mL
Broth MIC Normal MH broth [2]: 2 µg/mL
MIC (S. pneum 6303): 2 µg/mL (≈ 4.65 µM)
MIC (MRSA 15187): 1 µg/mL (≈ 2.32 µM)
MIC (S. aureus 25923): 2 µg/mL (≈ 4.65 µM)
MIC (VRE 6A): 1 µg/mL (≈ 2.32 µM)
MIC (MRSA 33): 1 µg/mL (≈ 2.32 µM)
MIC (MRSA 562 [3]; Table 5): 1 µg/mL (≈ 2.32 µM)
MIC (MRSA 562 [3]; agar incorporation, Table 1): 1 µg/mL (≈ 2.32 µM)
ED50 (mg/kg body weight) PO (MRSA 562 [4]): 25 mg/kg body weight
MIC (E. faecalis 29212): 1 µg/mL (≈ 2.32 µM)
MIC (S. pneum AB 34): 4 µg/mL (≈ 9.29 µM)

MIC (S. pyogenes 19615): 2 µg/mL (≈ 4.21 µM)
Geometric Mean of in vitro activity (MIC) (E. faecalis): 0.92 µg/mL
MIC50 (E. faecalis): 1 µg/mL (≈ 2.1 µM)
MIC90 (E. faecalis): 1 µg/mL (≈ 2.1 µM)
MIC (S. pneum 6303): 2 µg/mL (≈ 4.21 µM)
MIC (MRSA 15187): 0.5 µg/mL (≈ 1.05 µM)
MIC (S. aureus 25923): 1 µg/mL (≈ 2.1 µM)
MIC (VRE 6A): 1 µg/mL (≈ 2.1 µM)
MIC50 (G+ve): 1 µg/mL (≈ 2.1 µM)
MIC90 (G+ve): 2 µg/mL (≈ 4.21 µM)
Geometric Mean of in vitro activity (MIC) (G+ve; Gram +ve): 0.79 µg/mL
MIC (MRSA 33): 0.5 µg/mL (≈ 1.05 µM)
MIC (MRSA 562 [3]; Table 5): 1 µg/mL (≈ 2.1 µM)
Geometric Mean of in vitro activity (MIC) (S. pneumoniae): 1.27 µg/mL
MIC50 (S. pneumoniae): 2 µg/mL (≈ 4.21 µM)
MIC90 (S. pneumoniae): 2 µg/mL (≈ 4.21 µM)
MIC (E. faecalis 29212): 1 µg/mL (≈ 2.1 µM)
MIC (S. pneum AB 34): 2 µg/mL (≈ 4.21 µM)
Geometric Mean of in vitro activity (MIC) (S. aureus): 0.74 µg/mL
MIC50 (S. aureus): 1 µg/mL (≈ 2.1 µM)
MIC90 (S. aureus): 1 µg/mL (≈ 2.1 µM)
SMILES: CC(=O)NC[C@H]1CN(c2ccc(N3CCN(C(=O)c4ccc([N+](=O)[O-])o4)CC3)c(F)c2)C(=O)O1 [Compound No. 06, (S)-N-[[3-Fluoro-4-[N-1[4-(5-nitro-2-furoyl)piperazinyl]phenyl]-2-oxo-5-oxazolidinyl]methyl]acetamide]
ED50 (mg/kg body weight) PO (MRSA 562 [4]): >25 mg/kg body weight

SMILES: CC(=O)NC[C@H]1CN(c2ccc(N3CCN(Cc4ccc([N+](=O)[O-])o4)CC3)c(F)c2)C(=O)O1.Cl [Compound No. 16]
MIC (S. pyogenes 19615): 0.5 µg/mL
Agar MIC [1]: 2 µg/mL
Broth MIC +50% Sheep serum [2]: 2 µg/mL
Broth MIC Normal MH broth [2]: 2 µg/mL
MIC (S. pneum 6303): 1 µg/mL
MIC (MRSA 15187): 4 µg/mL
MIC (S. aureus 25923): 2 µg/mL
MIC (VRE 6A): 4 µg/mL
MIC (MRSA 33): 4 µg/mL
MIC (E. faecalis 29212): 2 µg/mL
MIC (S. pneum AB 34): 1 µg/mL

SMILES: CC(=O)NC[C@H]1CN(c2ccc(N3CCOCC3)c(F)c2)C(=O)O1 [Linezolid, reference compound]
MIC (S. pyogenes 19615; Streptococcus pyogenes, read-out: MIC): 2 µg/mL (≈ 5.93 µM)
Agar MIC [1]: 2 µg/mL
MIC50 (E. faecalis; Enterococcus faecalis, read-out: MIC50): 4 µg/mL (≈ 11.9 µM)
MIC90 (E. faecalis; Enterococcus faecalis, read-out: MIC90): 16 µg/mL (≈ 47.4 µM)
MIC (E. faecalis; Enterococcus faecalis, read-out: Geometric Mean of in vitro activity (MIC)): 4 µg/mL (≈ 11.9 µM)
Broth MIC +50% Sheep serum [2]: 2 µg/mL
Broth MIC Normal MH broth [2]: 1 µg/mL
MIC (S. pneum 6303; Streptococcus pneumoniae, read-out: MIC): 2 µg/mL (≈ 5.93 µM)
MIC (MRSA 15187; [5]): 1 µg/mL (≈ 2.96 µM)
MIC (S. aureus 25923; [5]): 2 µg/mL (≈ 5.93 µM)
MIC (VRE 6A; Enterococcus, read-out: MIC): 2 µg/mL (≈ 5.93 µM)
MIC50 (G+ve; read-out: MIC50): 2 µg/mL (≈ 5.93 µM)
MIC90 (G+ve; read-out: MIC90): 4 µg/mL (≈ 11.9 µM)
MIC (G+ve; Gram +ve, read-out: Geometric Mean of in vitro activity (MIC)): 1.25 µg/mL (≈ 3.71 µM)
MIC (MRSA 33; [5]): 2 µg/mL (≈ 5.93 µM)
MIC (MRSA 562 [3]; Table 5): 2 µg/mL (≈ 5.93 µM)
MIC (MRSA 562 [3]; Staphylococcus aureus, agar incorporation, Table 1, read-out: MIC): 2 µg/mL (≈ 5.93 µM)
MIC50 (S. pneumoniae; Streptococcus pneumoniae, read-out: MIC50): 0.5 µg/mL (≈ 1.48 µM)
MIC90 (S. pneumoniae; Streptococcus pneumoniae, read-out: MIC90): 2 µg/mL (≈ 5.93 µM)
MIC (S. pneumoniae; Streptococcus pneumoniae, read-out: Geometric Mean of in vitro activity (MIC)): 0.6 µg/mL (≈ 1.78 µM)
MIC (E. faecalis 29212; Enterococcus faecalis, read-out: MIC): 2 µg/mL (≈ 5.93 µM)
MIC (S. pneum AB 34; Streptococcus pneumoniae, AB34, read-out: MIC): 4 µg/mL (≈ 11.9 µM)
MIC50 (S. aureus; Staphylococcus aureus, read-out: MIC50): 2 µg/mL (≈ 5.93 µM)
MIC90 (S. aureus; Staphylococcus aureus, read-out: MIC90): 4 µg/mL (≈ 11.9 µM)
MIC (S. aureus; Staphylococcus aureus, read-out: Geometric Mean of in vitro activity (MIC)): 2.38 µg/mL (≈ 7.05 µM)
